How the values were obtained:
Conditions in all cases: incubation time: 72 h
HCC1937 [1] = assay: normalised response (% of control), CellTiter-Glo; higher = more viable cells (100 = DMSO, 0 = benzethonium chloride kill control)
Description: (§1)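 DSRT, 72 h incubation, CellTox Green / CellTiter-Glo readout. Signal is normalised to DMSO and benzethonium chloride controls. Value is the normalised response at dose 3.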

MDA-MB-231 [2] = assay: as above
Description: as §1

MDA-MB-436 [3] = assay: as above
Description: as §1

DU-4475 [4] = assay: as above
Description: as §1

CAL-120 [5] = assay: as above
Description: as §1

CAL-51 [6] = assay: as above
Description: as §1

MDA-MB-453 [7] = assay: as above
Description: as §1

MFM-223 [8] = assay: as above
Description: as §1

HDQ-P1 [9] = assay: as above
Description: as §1

BT-549 [10] = assay: as above
Description: as §1

Hs578T [11] = assay: as above
Description: as §1

HCC1599 [12] = assay: as above
Description: as §1

CAL-148 [13] = assay: as above
Description: as §1

SK-BR-3 = assay: as above
Description: as §1

CAL-85-1 [14] = assay: as above
Description: as §1

MDA-MB-468 [15] = assay: as above
Description: as §1

BT-474 [16] = assay: as above
Description: as §1

MCF-10A [17] = assay: as above
Description: as §1

HCC1143 [18] = assay: as above
Description: as §1

HCC1937 [19] = assay: normalised response (% of control), CellTox Green; higher = less cell death (100 = DMSO, 0 = benzethonium chloride kill control)
Method in brief: (§2)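 Each entry is the normalised signal at a single concentration within a series. The series comprised 5 concentrations in 10-fold steps over a compound-specific 10,000-fold range, placed in 384-well plates into which breast cancer cell lines were seeded as 20 µl suspension and incubated 72 h. CellTox Green (485/520 nm) fluorescence and then CellTiter-Glo luminescence were read, with signals normalised per plate to 0.1 % DMSO (100) and a positive kill control (0).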

MDA-MB-231 [20] = assay: as above
Method in brief: as §2

DU-4475 [21] = assay: as above
Method in brief: as §2

CAL-120 [22] = assay: as above
Method in brief: as §2

CAL-51 [23] = assay: as above
Method in brief: as §2

MDA-MB-453 [24] = assay: as above
Method in brief: as §2

MFM-223 [25] = assay: as above
Method in brief: as §2

HDQ-P1 [26] = assay: as above
Method in brief: as §2

BT-549 [27] = assay: as above
Method in brief: as §2

Hs578T [28] = assay: as above
Method in brief: as §2

HCC1599 [29] = assay: as above
Method in brief: as §2

CAL-85-1 [30] = assay: as above
Method in brief: as §2

MDA-MB-468 [31] = assay: as above
Method in brief: as §2

BT-474 [32] = assay: as above
Method in brief: as §2

MCF-10A [33] = assay: as above
Method in brief: as §2

HCC1143 [34] = assay: as above
Method in brief: as §2

MDA-MB-436 [35] = assay: as above
Method in brief: as §2

CAL-148 [36] = assay: as above
Method in brief: as §2

SMILES | normalised response (HCC1937 [1]) [%] | normalised response (MDA-MB-231 [2]) [%] | normalised response (MDA-MB-436 [3]) [%] | normalised response (DU-4475 [4]) [%] | normalised response (CAL-120 [5]) [%] | normalised response (CAL-51 [6]) [%] | normalised response (MDA-MB-453 [7]) [%] | normalised response (MFM-223 [8]) [%] | normalised response (HDQ-P1 [9]) [%] | normalised response (BT-549 [10]) [%] | normalised response (Hs578T [11]) [%] | normalised response (HCC1599 [12]) [%] | normalised response (CAL-148 [13]) [%] | normalised response (SK-BR-3) [%] | normalised response (CAL-85-1 [14]) [%] | normalised response (MDA-MB-468 [15]) [%] | normalised response (BT-474 [16]) [%] | normalised response (MCF-10A [17]) [%] | normalised response (HCC1143 [18]) [%] | normalised response (HCC1937 [19]) [%] | normalised response (MDA-MB-231 [20]) [%] | normalised response (DU-4475 [21]) [%] | normalised response (CAL-120 [22]) [%] | normalised response (CAL-51 [23]) [%] | normalised response (MDA-MB-453 [24]) [%] | normalised response (MFM-223 [25]) [%] | normalised response (HDQ-P1 [26]) [%] | normalised response (BT-549 [27]) [%] | normalised response (Hs578T [28]) [%] | normalised response (HCC1599 [29]) [%] | normalised response (CAL-85-1 [30]) [%] | normalised response (MDA-MB-468 [31]) [%] | normalised response (BT-474 [32]) [%] | normalised response (MCF-10A [33]) [%] | normalised response (HCC1143 [34]) [%] | normalised response (MDA-MB-436 [35]) [%] | normalised response (CAL-148 [36]) [%]
Cn1cc(C2=Nc3cc(NC(=O)C(N)C4CCCCC4)cc4c3C2=CNNC4=O)cn1 (stereo not given) (100 nM) | 95.1 | 93.5 | 91.6 | 95.1 | 89 | 96.7 | 74.1 | 77.8 | 95.2 | 93.5 | 90.7 | 63.3 | 82.7 | 74.1 | 87.1 | 88.8 | 94.4 | 81.7 | 90.9 | 76.5 | 96.3 | 96.7 | 92 | 96.1 | 85 | 98.5 | 107 | 87.2 | 98.8 | 89.5 | 73 | 106 | 97.7 | 62.9 | 101 |  | 
COc1cc2c(cc1O)CC[C@@H]1[C@@H]2CC[C@]2(C)[C@@H](O)CC[C@@H]12 [2-methoxyestradiol] (100 nM) | 93.4 | 102 | 101 | 101 | 101 | 63.5 | 91.1 | 94.2 | 103 | 95.5 | 102 | 89.4 | 90.6 | 89 | 97.3 | 103 | 98.5 | 94.5 | 100 | 97.3 | 99.3 | 98.7 | 98 | 78.3 | 101 | 102 | 107 | 110 | 103 | 102 | 87.6 | 69.5 | 94 | 61.8 |  | 87.4 | 56.1
CC1(C)CCC(CN2CCN(c3ccc(C(=O)NS(=O)(=O)c4ccc(NCC5CCOCC5)c([N+](=O)[O-])c4)c(Oc4cnc5[nH]ccc5c4)c3)CC2)=C(c2ccc(Cl)cc2)C1 [ABT-199] (100 nM) | 98.2 | 99.3 | 96.7 | 102 | 101 | 92.4 | 90.7 | 99.2 | 104 | 100 | 107 | 94.2 | 98.9 | 101 | 101 | 93.6 | 96.7 | 98.2 | 102 | 89.3 | 105 | 99.3 | 101 | 101 | 101 | 79.9 | 93.6 |  | 104 | 99.2 | 94.6 |  | 101 | 81.7 | 91.6 | 83 | 84.2
O=C1CN2Cc3c(ccc(Cl)c3Cl)N=C2N1 [Anagrelide] (100 nM) | 95.8 | 94.7 | 94.3 | 96.9 | 96 | 63.1 | 111 | 101 | 97.2 | 105 | 98.5 | 104 | 94.1 | 103 | 97 | 99.5 | 93.7 | 98.4 | 101 | 103 | 96.2 | 98.5 | 98 | 51.3 | 92.5 | 68.7 | 101 | 77.3 | 104 | 86.8 | 104 | 146 | 99.4 | 100 | 108 | 105 | 100
Nc1ncn([C@@H]2O[C@H](CO)[C@@H](O)[C@H]2O)c(=O)n1 [Azacitidine] (100 nM) | 97 | 98.1 | 99 | 91.1 | 96.3 | 99.8 | 89 | 98 | 103 | 101 | 100 | 100 | 101 | 96 | 99.1 | 96.4 | 102 | 103 | 98.6 | 99.4 | 88.1 | 98.2 | 96.9 | 99.3 | 83.8 | 97.8 | 64.8 | 99.9 | 103 | 98 | 108 | 115 | 101 | 87 | 56 | 79.5 | 103
O=NN(CCCl)C(=O)NCCCl [Carmustine] (100 nM) | 95.8 | 97.3 | 101 | 101 | 95.5 | 85 | 101 | 98.3 | 100 | 111 | 105 | 88 | 92.3 | 99.7 | 101 | 101 | 97.7 | 92.5 | 100 | 103 | 100 | 95.1 | 95.2 | 99.1 | 91.5 | 101 | 106 | 90.8 | 100 | 97.9 | 101 | 52.9 | 99.1 | 93.4 | 101 | 61.7 | 100
CC(=O)O[C@@]12CO[C@@H]1C[C@H](O)[C@@]1(C)C(=O)[C@H](O)C3=C(C)[C@@H](OC(=O)[C@H](O)[C@@H](NC(=O)OC(C)(C)C)c4ccccc4)C[C@@](O)([C@@H](OC(=O)c4ccccc4)[C@H]21)C3(C)C [Docetaxel] (10 nM) | 67.3 | 53.4 | 40.7 | 68.8 | 61.7 | 43.1 | 61.2 | 54.3 | 69.4 | 20.5 | 28.1 | 71.9 | 38.2 | 12.2 | 26.6 | 22.7 | 67.8 | 46.2 | 35.5 | 24.7 | -111 | 94 | 88.8 | 11.5 | 99.3 | 77.9 | -5.27 | 63.4 | 39.5 | 95.8 | 26.6 | 104 | 65.8 | 56.1 | 88.9 | 79.8 | 61.8
Nc1nc2[nH]cnc2c(=S)[nH]1 [Thioguanine] (100 nM) | 96.3 | 93.5 | 97 | 95.7 | 108 | 109 | 112 | 96.8 | 90.8 | 95.9 | 101 | 96.5 | 102 | 98.9 | 91.9 | 98.8 | 83.4 | 97.4 | 101 | 96.7 | 105 | 101 | 100 | 108 | 99 | 98.7 | 104 | 103 | 90.5 | 97.1 | 111 | 66.4 | 102 | 75.6 | 59.1 | 89 | 

— the supplement of paper PMC4862054
